Values joined by “and” are separate entries in the source; they are usually repeats but may differ in a detail not shown here. Identical values can stand only once.
Tests used:
Type in all cases: in vivo, mouse
[1] = system: tyrosine hydroxylase (TH) positive cells of the SNc; experiment: TH-positive cells in SNc, MPTP model
Description: Immunohistochemistry was performed as described in Papale et al ([2016]). […]
(§1) For in vivo immunohistochemistry experiments, images were acquired from the dorsal striatum using a Leica DM IRB microscope under a 20× objective. The number of p‐ERK, p‐MSK‐1, p‐ELK, p‐MEK‐1, p‐VG K+, c‐Fos, and DARPP‐32 positive cells was counted in 2–3 consecutive sections per mouse, bilaterally and averaged across the sections using the ImageJ software by a blind investigator to the condition. Estimation of nigral cell loss was assessed by quantifying the number of TH‐immunopositive neurons of the SNc in 360 μm‐spaced sections for each animal. […]
Immuno‐labeled sections were visualized under a Leica DM/RBE light microscope and an Olympus BX50 light microscope with Visiopharm Integrator System software (version 4.4.6.9). TH‐positive cells were counted at 200‐μm intervals. The total number of cells (C) for each animal was calculated using the following formula: C = ∑c × (∑A/∑a) × f, where c is the number of cells in each sampling frame, A is the inclusion area for each section, a is the area of the sampling frame for each animal, and f is the frequency of sectioning.

pERK in DG = experiment: pERK in dentate gyrus of Tg2576 mice; conditions: for pERK in dentate gyrus (Fig 5 panel k): individual animals
Description: (§2) Immunohistochemistry was performed as described in Papale et al ([2016]). Briefly, 1 h after blocking in 5% normal goat serum and 0.1% Triton X‐100 solution, free‐floating sections were incubated overnight at 4°C with one of the following primary antibodies: anti‐phospho‐p44/42 MAP kinase (Thr202/Tyr204) (1:200, Cell Signaling Technology #9101), anti‐phospho–Elk‐1 (Ser383) (1:100, Cell Signaling #9181), anti‐phospho‐Kv4.2 (Thr607)‐R (1:100, Santa Cruz sc22254‐R), anti‐phospho‐MSK‐1 (1:100 Cell Signaling Technology #9595), anti‐phospho‐MEK1/2 (Ser218/222) (1:100, sc‐7995 Santa Cruz Biotechnology), c‐Fos (1:100, sc‐52 Santa Cruz Biotechnology), tyrosine Hydroxylase (monoclonal 1:1,000, Sigma Aldrich, Italy) and anti‐DARPP‐32 (H3) (1:100, Santa Cruz Biotechnology, #sc‐271111) overnight at 4°C. Sections were then incubated with biotinylated goat anti‐rabbit IgG (1:200, Vector Laboratories) or biotinylated goat anti‐mouse (1:200, Vector Laboratories) for 2 h. The classic avidin‐peroxidase complex (ABC, Vector, UK) protocol was applied, using 3,3′‐diaminobenzidine (DAB, Sigma) as a chromogen.
Tg2576 mice were administered with RB5 or Scramble (20 mg/kg i.p.) for either 7 days, for IHC analysis, or with a single injection (20 mg/kg i.p.), for behavioral analysis.

pERK1/2 = pERK1/2 in striatum of zQ175 females after RB5; conditions: zQ175 females and WT controls, RB5 for 9 days
Description: as §2, with “Sections were then incubated with biotinylated goat anti‐rabbit IgG (1:200, Vector Laboratories) or biotinylated goat anti‐mouse (1:200, Vector Laboratories) for 2 h. The classic avidin‐peroxidase complex (ABC, Vector, UK) protocol was applied, using 3,3′‐diaminobenzidine (DAB, Sigma) as a chromogen.” left out
as §1

## GRKKRRQRRRPPQGGGGGEPRRTEGVGPGVPGEVEMVKGQPFDV [RB5, six D-amino acids, acetylated N-terminus]
[1]; MPTP 20 mg/kg i.p. and RB5 20 mg/kg i.p. for 4 days
  Tyrosine hydroxylase (TH) loss in SNc: prevented tyrosine hydroxylase (TH) loss
[1]; MPTP model, individual animals
  TH-positive cells in SNc (Fig 5 panel g): 3818.38 and 2495.7 and 4195.82 and 2081.4 and 2629.68 and 4880.04 and 2139.82 and 2203.06 and 3349.83 and 3862.19 and 2316.4 and 3288.79 and 3386.28
pERK in DG; Tg2576 mice, 7 months old, 20 mg/kg i.p. for 7 days
  ERK phosphorylation in dentate gyrus: restored ERK phosphorylation
pERK in DG; Tg2576 mice
  pERK in dentate gyrus (Fig 5 panel k): 11.21 and 6.88 and 9.13 and 7.17 and 10.84 and 11.62 and 10.66 and 8.7
pERK in DG; WT mice
  pERK in dentate gyrus (Fig 5 panel k): 8.18 and 9.67 and 8.87 and 7.48 and 10.41 and 9.92 and 13.01
pERK1/2
  pERK1/2 levels in striatum: enhanced

From PMC10630888, “Nuclear ERK1/2 signaling potentiation enhances neuroprotection and cognition via Importinα1/KPNA2” (EMBO Molecular Medicine, 2023)
